Patent publication US7015228B2, “4-amino-2-(2-pyridyl)pyrimidines as microbicidal active substances” (Ciba Specialty Chemicals Corporation, priority 2001, dated 2006)

Key:
Test in all cases: Determination of the bactericidal activity (logarithmic reduction in organism count)
Settings in all cases: contact for 30 minutes at a substance concentration of 120 μg/mL
E. coli NCTC 8196 = assay type: cell-based, Escherichia coli
[1] = tested on: S. choleraesuis ATCC 10708; assay type: cell-based, Salmonella choleraesuis
Method: (§1) Determination of the Bactericidal Activity of Selected Compounds
(§2) Casein-soybean flour-peptone broth for preparation of pre-cultures of test bacteria
(§3) Examples of Test Organisms:
(§4) • Staphylococcus aureus ATCC 6538 • Escherichia coli ATCC 10536 • Salmonella choleraesuis ATCC 10708 Procedure:
(§5) The test substances are dissolved in dimethyl sulfoxide (DMSO) and tested in a concentration of 120 μg/ml.
(§6) Bacteria are incubated overnight in CASO broth and adjusted to an organism count of 1–5×10^5 CFU/ml using 0.85% sodium chloride solution.
(§7) The test substances are pre-pipetted into microtitre plates in amounts of 8 μl per well.
(§8) The adjusted test organism suspensions are added in amounts of 192 μl per well to the test substances and mixed. After defined contact times, the test batches are mixed, an aliquot is withdrawn and diluted in several steps in a dilution series of 1:10 in a suitable inactivation medium.
The test plates are incubated for 24 hours at 37° C. […]
(§9) One microtitre plate is used for each test organism.
(§10) All the substances are tested in duplicate.

S. aureus ATCC 6538 = assay type: cell-based, Staphylococcus aureus
Method: as §1, §2, §3, §4, §5, §6, §7, §8
The test plates are incubated for 24 hours at 37° C.
After incubation, the growth is determined on the basis of the turbidity of the test batches (optical density) at 620 nm in a microplate reader.
as §9, §10

SMILES | Logarithmic reduction in organism count, E. coli NCTC 8196 (E. coli NCTC 8196) | Logarithmic reduction in organism count, S. choleraesuis ATCC 10708 [1] | Logarithmic reduction in organism count, S. aureus ATCC 6538 (S. aureus ATCC 6538)
CCCCCCCCNc1cc(C(F)(F)F)nc(-c2ccccn2)n1 [Compound of formula 33] | <1 log | <1 log | <1 log
CCCCCCCCCNc1cc(C(F)(F)F)nc(-c2ccccn2)n1 [Compound of formula 34] | <1 log | <1 log | <1 log
CCCCCCCCCCNc1cc(C(F)(F)F)nc(-c2ccccn2)n1 [Compound of formula 35] | <1 log | <1 log | <1 log
CCCCCCCCCCCCCCCCNc1cc(C(F)(F)F)nc(-c2ccccn2)n1 [Compound of formula 37] | <1 log | <1 log | 1–2 log
CC(C)c1cc(NCCCCCCCCCN)nc(-c2ccccn2)n1 [Compound of formula 42] | ≦1 log | <1 log | 2 log
CC(C)c1cc(NCCCCCCCCCCCCN)nc(-c2ccccn2)n1 [Compound of formula 43] | <1 log | <1 log | 3 log
CCCCCCCNc1cc(C(C)C)nc(-c2ccccn2)n1 [Compound of formula 44] | <1 log | <1 log | 1–2 log
CCCCCCCCNc1cc(C(C)C)nc(-c2ccccn2)n1 [Compound of formula 45] | <1 log | <1 log | 1–2 log
CCCCCCCCCNc1cc(C(C)C)nc(-c2ccccn2)n1 [Compound of formula 46] | <1 log | <1 log | ≦1 log
CCCCCCCCCCNc1cc(C(C)C)nc(-c2ccccn2)n1 [Compound of formula 47] | <1 log | <1 log | 1 log
CCCCCCCCCCCCNc1cc(C(C)C)nc(-c2ccccn2)n1 [Compound of formula 48] | <1 log | <1 log | 1 log
CC(C)(C)c1cc(NCCCCCCCCCN)nc(-c2ccccn2)n1 [Compound of formula 54] | ≦1 log | ≦1 log | 2–3 log
CCCCCCCCCNc1cc(C(C)(C)C)nc(-c2ccccn2)n1 [Compound of formula 58] | ≦1 log | ≦1 log | 1 log
CCCCCCCCCCCCNc1cc(C(C)(C)C)nc(-c2ccccn2)n1 [Compound of formula 60] | <1 log | <1 log | <1 log
CC(C)(C)c1cc(NCCc2ccccc2)nc(-c2ccccn2)n1 [Compound of formula 63] | ≦1 log | <1 log | <1 log
Cc1nc(-c2ccccn2)nc(NCCCCCCCCN)c1C(C)C [Compound of formula 65] | <1 log | <1 log | 3 log
CCCCCCCNc1nc(-c2ccccn2)nc(C)c1C(C)C [Compound of formula 68] | <1 log | <1 log | ≦1 log
CCCCCCCCNc1nc(-c2ccccn2)nc(C)c1C(C)C [Compound of formula 69] | <1 log | ≦1 log | 1–2 log
CCCCCCCCCNc1nc(-c2ccccn2)nc(C)c1C(C)C [Compound of formula 70] | ≦1 log | <1 log | ≦1 log
CCCCCCCCCCNc1nc(-c2ccccn2)nc(C)c1C(C)C [Compound of formula 71] | <1 log | <1 log | 2 log
COCCc1cc(NCCCCCCCCN)nc(-c2ccccn2)n1 [Compound of formula 77] | <1 log | <1 log | >3 log
COCCc1cc(NCCCCCCCCCN)nc(-c2ccccn2)n1 [Compound of formula 78] | ≦1 log | <1 log | >3 log
CCCCCCCCCCNc1cc(CCOC)nc(-c2ccccn2)n1 [Compound of formula 83] | ≦1 log | <1 log | 2 log
CCCCCCCCCCCNc1nc(-c2ccccn2)nc(C)c1CC [Compound of formula 89] | ≦1 log | ≦1 log | 2 log
CCCCCCCCCCCCCCCNc1nc(-c2ccccn2)nc(C)c1CC [Compound of formula 90] | <1 log | <1 log | 2 log
CCCCCCCCCCCNc1cc(C)nc(-c2ccccn2)n1 [Compound of formula 92] | <1 log | ≦1 log | >3 log
CCCCCCCCCCCCCCCNc1cc(C)nc(-c2ccccn2)n1 [Compound of formula 93] | ≦1 log | <1 log | 2 log
CCCCCCCCCCCNc1cc(C(C)C)nc(-c2ccccn2)n1 [Compound of formula 98] | 1–2 log | 2–3 log | 1 log
CCCCCCCCCCCCCCCNc1cc(C(C)C)nc(-c2ccccn2)n1 [Compound of formula 99] | ≦1 log | <1 log | 2 log
